PubChem BioAssay AID1963870 (Molecular Pharmacology Branch, DTP, NCI, 2024)
pIC50: −log10 of the molar value.

System: 292921-168-R-J2-PDC KRAS tumor spheroid viability
Experiment: Anticancer human tumor 292921-168-R-J2-PDC patient-derived pancreatic carcinoma cell line growth inhibition [KRAS2]
Settings: spheroids with HUVEC and MSC; for pIC50: curve of first compound; for viability, T/C: stronger effect = lower value
In short: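 KRAS-mutant tumor cells were grown as spheroids with HUVEC endothelial cells and human MSCs as stroma. Targeted agents were tested alone and with KRAS pathway inhibitors. Doses started at or near clinical Cmax, or 10 microM, descending half-log.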

[1] = second compound 0.1 µM, first compound 0.01 µM
[2] = second compound 0.1 µM, first compound 0.0316 µM
[3] = second compound 0.1 µM, first compound 0.1 µM
[4] = second compound 0.1 µM, first compound 0.316 µM
[5] = second compound 0.1 µM, first compound 1 µM
[6] = second compound 0.1 µM, first compound 3.16 µM
[7] = second compound 0.316 µM, first compound 0.01 µM
[8] = second compound 0.316 µM, first compound 0.0316 µM
[9] = second compound 0.316 µM, first compound 0.1 µM
[10] = second compound 0.316 µM, first compound 0.316 µM
[11] = second compound 0.316 µM, first compound 1 µM
[12] = second compound 0.316 µM, first compound 3.16 µM
[13] = second compound 1 µM, first compound 0.01 µM
[14] = second compound 1 µM, first compound 0.0316 µM
[15] = second compound 1 µM, first compound 0.1 µM
[16] = second compound 1 µM, first compound 0.316 µM
[17] = second compound 1 µM, first compound 1 µM
[18] = second compound 1 µM, first compound 3.16 µM
[19] = second compound 3.16 µM, first compound 0.01 µM
[20] = second compound 3.16 µM, first compound 0.0316 µM
[21] = second compound 3.16 µM, first compound 0.1 µM
[22] = second compound 3.16 µM, first compound 0.316 µM
[23] = second compound 3.16 µM, first compound 1 µM
[24] = second compound 3.16 µM, first compound 3.16 µM
[25] = second compound 10 µM, first compound 0.0316 µM
[26] = second compound 10 µM, first compound 0.1 µM
[27] = second compound 10 µM, first compound 0.316 µM
[28] = second compound 10 µM, first compound 1 µM
[29] = second compound 10 µM, first compound 3.16 µM
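Further: drug exposure lasted seven days after spheroids formed for three days.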
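Wherever viability, T/C is given: percent of DMSO vehicle control viability which is 100%.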

Work on `CC(=O)OC12COC1CC(O)C1(C)C(=O)C(O)C3=C(C)C(OC(=O)C(O)C(NC(=O)OC(C)(C)C)c4ccccc4)CC(O)(C(OC(=O)c4ccccc4)C21)C3(C)C` (stereo not given) + C=CC(=O)N1CCN(c2nc(=O)n(-c3c(C)ccnc3C(C)C)c3nc(-c4c(O)cccc4F)c(F)cc23)C(C)C1 yielded a pIC50 (second compound 0.1 µM) greater than 8.00, a pIC50 (second compound 0.316 µM) greater than 8.00 and a pIC50 (second compound 1 µM) greater than 8.00. For the same compound, the pIC50 (second compound 3.16 µM) was greater than 8.00, the pIC50 (second compound 10 µM) was greater than 8.00 and the viability, T/C [1] was 14.6%. It also gave a viability, T/C [2] of 15.4%, a viability, T/C [3] of 14.2% and a viability, T/C [4] of 12.3%. The viability, T/C [5] was 14.5%, the viability, T/C [6] was 17.3% and the viability, T/C [7] was 12.9%. The viability, T/C [8] was 17.1%, the viability, T/C [9] was 13% and the viability, T/C [10] was 13.1%. For the same compound, the viability, T/C [11] was 13.7%, the viability, T/C [12] was 18.3% and the viability, T/C [13] was 17.1%. It also gave a viability, T/C [14] of 17.5%, a viability, T/C [15] of 14.9% and a viability, T/C [16] of 12.9%. It also gave a viability, T/C [17] of 14.4%, a viability, T/C [18] of 19.1% and a viability, T/C [19] of 18.1%. For the same compound, the viability, T/C [20] was 18.2%, the viability, T/C [21] was 16.9% and the viability, T/C [22] was 15.7%. It also gave a viability, T/C [23] of 16.1%, a viability, T/C [24] of 17.9% and a viability, T/C (second compound 10 µM, first compound 0.01 µM) of 20.5%. It also gave a viability, T/C [25] of 18.4%, a viability, T/C [26] of 16.6% and a viability, T/C [27] of 15.3%. It also gave a viability, T/C [28] of 15.7% and a viability, T/C [29] of 17.2%.

`CC(=O)OC12COC1CC(O)C1(C)C(=O)C(O)C3=C(C)C(OC(=O)C(O)C(NC(=O)OC(C)(C)C)c4ccccc4)CC(O)(C(OC(=O)c4ccccc4)C21)C3(C)C` (stereo not given) + C=CC(=O)N1CCN(c2nc(OCC3CCCN3C)nc3c2CCN(c2cccc4cccc(C)c24)C3)CC1CC#N showed a pIC50 (second compound 0.0316 µM) greater than 8.00, a pIC50 (second compound 0.1 µM) greater than 8.00 and a pIC50 (second compound 0.316 µM) greater than 8.00. For the same compound, the pIC50 (second compound 1 µM) was greater than 8.00, the pIC50 (second compound 3.16 µM) was greater than 8.00 and the viability, T/C (second compound 0.0316 µM, first compound 0.01 µM) was 12.8%. It also gave a viability, T/C (second compound 0.0316 µM, first compound 0.0316 µM) of 14.4%, a viability, T/C (second compound 0.0316 µM, first compound 0.1 µM) of 10.5% and a viability, T/C (second compound 0.0316 µM, first compound 0.316 µM) of 11.3%. The viability, T/C (second compound 0.0316 µM, first compound 1 µM) was 13.3%, the viability, T/C (second compound 0.0316 µM, first compound 3.16 µM) was 17.1% and the viability, T/C [1] was 13.8%. It also gave a viability, T/C [2] of 12%, a viability, T/C [3] of 9.84% and a viability, T/C [4] of 9.08%. The viability, T/C [5] was 12.5%, the viability, T/C [6] was 14.9% and the viability, T/C [7] was 11.8%. The viability, T/C [8] was 9.96%, the viability, T/C [9] was 8.56% and the viability, T/C [10] was 9.75%. For the same compound, the viability, T/C [11] was 15.3%, the viability, T/C [12] was 14.3% and the viability, T/C [13] was 8.08%. For the same compound, the viability, T/C [14] was 6.89%, the viability, T/C [15] was 6.48% and the viability, T/C [16] was 7.06%. For the same compound, the viability, T/C [17] was 6.74%, the viability, T/C [18] was 7.91% and the viability, T/C [19] was 15.1%. For the same compound, the viability, T/C [20] was 13.7%, the viability, T/C [21] was 11.1% and the viability, T/C [22] was 11.6%. The viability, T/C [23] was 14% and the viability, T/C [24] was 18.2%.

Work on `CC1(C)CCC(CN2CCN(c3ccc(C(=O)NS(=O)(=O)c4ccc(NCC5CCOCC5)c([N+](=O)[O-])c4)c(Oc4cnc5[nH]ccc5c4)c3)CC2)=C(c2ccc(Cl)cc2)C1` + COc1cc2nc(C)nc(NC(C)c3cc(N)cc(C(F)(F)F)c3)c2cc1OC1CCOC1 yielded a pIC50 (second compound 0.1 µM) of 5.68, a pIC50 (second compound 0.316 µM) of 5.66 and a pIC50 (second compound 1 µM) of 5.74. For the same compound, the pIC50 (second compound 3.16 µM) was 5.86, the pIC50 (second compound 10 µM) was greater than 7.50 and the viability, T/C [2] was 105%. For the same compound, the viability, T/C [3] was 94.4%, the viability, T/C [4] was 91.9% and the viability, T/C [5] was 93.4%. The viability, T/C [6] was 25.6%, the viability, T/C (second compound 0.1 µM, first compound 10 µM) was 14.3% and the viability, T/C [8] was 88.9%. The viability, T/C [9] was 81%, the viability, T/C [10] was 88.9% and the viability, T/C [11] was 91.6%. It also gave a viability, T/C [12] of 32.1%, a viability, T/C (second compound 0.316 µM, first compound 10 µM) of 8.02% and a viability, T/C [14] of 84.1%. For the same compound, the viability, T/C [15] was 80.5%, the viability, T/C [16] was 83% and the viability, T/C [17] was 85.8%. The viability, T/C [18] was 19.5%, the viability, T/C (second compound 1 µM, first compound 10 µM) was 8.25% and the viability, T/C [20] was 70.8%. For the same compound, the viability, T/C [21] was 70.6%, the viability, T/C [22] was 73.2% and the viability, T/C [23] was 63.4%. It also gave a viability, T/C [24] of 15.6%, a viability, T/C (second compound 3.16 µM, first compound 10 µM) of 8.28% and a viability, T/C [25] of 36.8%. For the same compound, the viability, T/C [26] was 31%, the viability, T/C [27] was 33.6% and the viability, T/C [28] was 27.3%. For the same compound, the viability, T/C [29] was 7.17% and the viability, T/C (second compound 10 µM, first compound 10 µM) was 6.32%.
